Source: patent US20240246979A1, “cGAS INHIBITORS” (Eli Lilly and Company, priority 2022, published 2024)
pIC50: −log10 of the molar value.

What was measured:
[1] = molecular target: T1, cGAS (Homo sapiens, UniProt Q8N884); assay: Cellular assay to measure cGAS activity (IFNb AlphaLISA in THP1 cells stimulated by RDG-Adenovirus-GFP); assay type: cell-based; design: host or cells: THP1 cells differentiated with PMA and stimulated with RDG-Adenovirus-GFP; settings: PMA-differentiated THP1 cells, RDG-Adenovirus-GFP at 1000 MOI; inhibition of IFNb production as marker for cGAS activity
T1 sequence (Q8N884 whole entry): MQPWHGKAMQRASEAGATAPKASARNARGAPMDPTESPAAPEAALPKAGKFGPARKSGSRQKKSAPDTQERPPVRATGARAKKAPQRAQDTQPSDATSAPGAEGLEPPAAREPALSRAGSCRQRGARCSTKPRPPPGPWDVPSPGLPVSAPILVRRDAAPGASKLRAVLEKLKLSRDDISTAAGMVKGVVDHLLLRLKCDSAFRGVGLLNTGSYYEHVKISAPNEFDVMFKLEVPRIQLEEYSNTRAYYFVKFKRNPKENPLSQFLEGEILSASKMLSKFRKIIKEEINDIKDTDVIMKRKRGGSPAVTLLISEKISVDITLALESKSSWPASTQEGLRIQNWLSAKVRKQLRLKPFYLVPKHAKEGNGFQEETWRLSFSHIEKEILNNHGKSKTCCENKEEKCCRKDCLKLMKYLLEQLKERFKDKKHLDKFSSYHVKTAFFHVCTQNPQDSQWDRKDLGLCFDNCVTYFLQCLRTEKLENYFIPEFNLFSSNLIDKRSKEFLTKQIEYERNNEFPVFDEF
Procedure: Cellular assay to measure cGAS activity: Use THP1 cell line from ATCC to determine inhibition of cGAS activity by test compounds in human cells. Plate cells on 96-well plates at 0.2×10^6/well and differentiate with phorbol myristate acetate (PMA) at 37° C./5% CO2. After 24 hours, replace PMA containing media with media lacking PMA and further incubate overnight. Stimulate cells were then by RDG-Adenovirus-GFP (Vector Biolabs #1768) at 1000 MOI for 4 hours prior to the addition of test compounds. After overnight incubation, transfer 10 μL of the media from each well to a new plate for IFNb analysis as a marker for cGAS activity. Measure quantification of IFNb with an IFNb AlphaLISA Detection kit (Perkin Elmer AL3133F) by mixing the acceptor beads with the cell supernatant followed by the addition of the biotinylated antibody and donor beads. Measure the relative fluorescence signal produced from the interaction of the donor and acceptor beads by a PHERAStar AlphaLISA protocol and evaluate the inhibitory effect of a compound by plotting specific inhibition of IFNb production against log concentration of the test compound. Calculate IC50 values using a 4-parameter non-linear logistic equation (y=(S0+((SInf−S0)/(1+((qAC50/x)^nHill))))).

[2] = molecular target: T1, cGAS; assay: In vitro inhibition assay of cGAS activity (cGAMP production, RapidFire mass spectrometry); assay type: biochemical; design: Insert cDNA encoding full-length of human cGAS; His6; made in house; host or cells: E. coli BL21(DE3); settings: 10 nM recombinant human cGAS, 60 nM 75-bp dsDNA, 50 μM ATP, 50 μM GTP, 3 hrs
Procedure: Expression and Purification of Recombinant cGAS Protein: Insert cDNA encoding full-length of human cGAS into a modified bacterial expression vector containing an in-frame His6-tag. Induce the E. coli strain BL21(DE3) harboring the plasmid with 1 mM IPTG (Isopropyl β-D-1-thiogalactopyranoside) at 18° C. overnight. Purify the His6-tagged cGAS protein over HISpur Ni-NTA resin in the presence of benzonase and RNase followed by Superdex 200 size exclusion chromatography with storage buffer (50 mM Tris-HCl pH 7.5, 300 mM NaCl, 1 mM DTT, 10% glycerol).
In vitro inhibition assay of cGAS activity: Add a 5 μL mixture containing 10 mM Tris-Cl pH 7.5, 50 mM NaCl, 5 mM MgCl2, 1 mM DTT, 0.01% Triton X-100, 60 nM 75-bp dsDNA, 50 μM ATP, 50 μM GTP, 10 nM of recombinant human cGAS, and serial dilutions of a test compound in DMSO to a 384-well plate and incubate at ambient temperature for 3 hrs. Quench the reaction by the addition of 100 μL of stop solution containing 0.1% formic acid and 0.1 μM internal standard (3′3′-difluoro cGAMP). Measure the amount of cGAMP produced by RapidFire 365 mass spectrometry and evaluate inhibitory effect of a compound by plotting percent specific inhibition of cGAMP production against log concentration of the test compound. Calculate IC50 values using a 4-parameter non-linear logistic equation (y=(S0+((Sinf−S0)/(1+((qAC50/x)^nHill))))).

SMILES | pIC50 [1] | pIC50 [2]
CC1C(=O)NCCc2[nH]c3c(Cl)c(Cl)cc(N[C@H]4CCOC4)c3c21 (mixture of isomers) [Example 61, 7,8-Dichloro-1-methyl-10-(((S)-tetrahydrofuran-3-yl)amino)-3,4,5,6-tetrahydroazepino[4,5-b]indol-2(1H)-one] | 5.72 | 7.46
O=C1Cc2c([nH]c3c(Cl)c(Cl)cc(-c4cn[nH]c4)c23)CCN1 [Example 19, 7,8-Dichloro-10-(1H-pyrazol-4-yl)-3,4,5,6-tetrahydroazepino[4,5-b]indol-2(1H)-one] | < 5.00 | 7.03
C[C@H]1C(=O)NCCc2[nH]c3c(Cl)c(Cl)cc(CC#N)c3c21 (single isomer, unassigned) [Example 90] | 6.00 | 6.26
C[C@@H]1C(=O)NCCc2c1c1c(NC(=O)CO)cc(Cl)c(Cl)c1n2C (single isomer, unassigned) [Example 92] | 6.59 | 7.76
CCOc1cc(Cl)c(Cl)c2[nH]c3c(c12)[C@H](C)C(=O)NCC3 (single isomer, unassigned) [Example 15B] | 5.09 | 5.96
Cn1ncc(-c2cc(Cl)c(Cl)c3[nH]c4c(c23)CC(=O)NC[C@H]4CCO)n1 (single isomer, unassigned) [Example 8B] | 5.50 | 6.67
CC1C(=O)NCCc2[nH]c3c(Cl)c(Cl)cc(NCc4cocn4)c3c21 (stereo not shown) [Example 57, 7,8-Dichloro-1-methyl-10-((oxazol-4-ylmethyl)amino)-3,4,5,6-tetrahydroazepino[4,5-b]indol-2(1H)-one] | 6.25 | 7.38
CC1C(=O)NCC(C)(C)c2[nH]c3c(Cl)c(Cl)cc(NCCO)c3c21 (stereo not shown) [Example 131, 7,8-Dichloro-10-((2-hydroxyethyl)amino)-1,5,5-trimethyl-3,4,5,6-tetrahydroazepino[4,5-b]indol-2(1H)-one] | 5.57 | 7.27
N#CCc1cc(Cl)c(Cl)c2[nH]c3c(c12)CC(=O)NCC3 [Example 28, 2-(7,8-Dichloro-2-oxo-1,2,3,4,5,6-hexahydroazepino[4,5-b]indol-10-yl)acetonitrile] | 6.04 | 7.24
COCCOc1cc(Cl)c(Cl)c2[nH]c3c(c12)[C@H](C)C(=O)NCC3(C)C (single isomer, unassigned) [Example 185, (S)-7,8-Dichloro-10-(2-methoxyethoxy)-1,5,5-trimethyl-3,4,5,6-tetrahydroazepino[4,5-b]indol-2(1H)-one or (R)-7,8-Dichloro-10-(2-methoxyethoxy)-1,5,5-trimethyl-3,4,5,6-tetrahydroazepino[4,5-b]indol-2(1H)-one] | < 5.00 | 5.72
NC(=O)COc1cc(Cl)c(Cl)c2[nH]c3c(c12)CC(=O)NCC3 [Example 20, 2-((7,8-Dichloro-2-oxo-1,2,3,4,5,6-hexahydroazepino[4,5-b]indol-10-yl)oxy)acetamide] | < 5.00 | 6.88
CC(O)CC1CNC(=O)Cc2c1[nH]c1c(Cl)c(Cl)cc(CC#N)c21 (stereo not shown) [Example 120, 2-(7,8-Dichloro-5-(2-hydroxypropyl)-2-oxo-1,2,3,4,5,6-hexahydroazepino[4,5-b]indol-10-yl)acetonitrile] | 6.15 | 7.92
CC(F)(F)C[C@@H]1CNC(=O)Cc2c1[nH]c1c(Cl)c(Cl)cc(CC#N)c21 (single isomer, unassigned) [Example 139] | 5.34 | 6.08
C[C@@H]1C(=O)NCCc2[nH]c3c(Cl)c(Cl)cc(OC[C@@H](C)O)c3c21 (single isomer, unassigned) [Example 82] | 6.04 | 7.49
C[C@@H]1C(=O)NCCc2[nH]c3c(Cl)c(Cl)cc(OCC(N)=O)c3c21 (single isomer, unassigned) [Example 17B] | 5.39 | 5.81
C[C@@H]1C(=O)NCCc2c1c1c(NC(=O)CO)cc(Cl)c(Cl)c1n2CC(F)(F)F (single isomer, unassigned) [Example 186, (S)—N-(7,8-Dichloro-1-methyl-2-oxo-6-(2,2,2-trifluoroethyl)-1,2,3,4,5,6-hexahydroazepino[4,5-b]indol-10-yl)-2-hydroxyacetamide or (R)—N-(7,8-Dichloro-1-methyl-2-oxo-6-(2,2,2-trifluoroethyl)-1,2,3,4,5,6-hexahydroazepino[4,5-b]indol-10-yl)-2-hydroxyacetamide] | 5.36 | 7.31
CC[C@H]1C(=O)NCCc2[nH]c3c(Cl)c(Cl)cc(OCC#N)c3c21 (single isomer, unassigned) [Example 35] | 5.43 | 7.36
CC1C(=O)NCCc2c1c1c(NCCO)cc(Cl)c(Cl)c1n2C (single isomer, unassigned) [Example 51, 7,8-Dichloro-10-((2-hydroxyethyl)amino)-1,6-dimethyl-3,4,5,6-tetrahydroazepino[4,5-b]indol-2(1H)-one] | 5.87 | 8.08
CC1C(=O)NCCc2[nH]c3c(Cl)c(Cl)cc(NCCC(F)F)c3c21 (stereo not shown) [Example 71, 7,8-Dichloro-10-((3,3-difluoropropyl)amino)-1-methyl-3,4,5,6-tetrahydroazepino[4,5-b]indol-2(1H)-one] | 5.63 | 7.37
CC1C(=O)NCCc2c1c1c(NC(=O)CO)cc(Cl)c(Cl)c1n2C(F)F (stereo not shown) [Example 144, N-(7,8-Dichloro-6-(difluoromethyl)-1-methyl-2-oxo-1,2,3,4,5,6-hexahydroazepino[4,5-b]indol-10-yl)-2-hydroxyacetamide] | 6.19 | 7.65
CC1C(=O)NCCc2c1c1c(NCCO)cc(Cl)c(Cl)c1n2C(F)F (racemic) [Example 140, 7,8-Dichloro-6-(difluoromethyl)-10-((2-hydroxyethyl)amino)-1-methyl-3,4,5,6-tetrahydroazepino[4,5-b]indol-2(1H)-one] | 5.89 | 7.79
C[C@@H]1C(=O)NCCc2[nH]c3c(Cl)c(Cl)cc(OCCCO)c3c21 (single isomer, unassigned) [Example 14A] | 6.46 | 8.14
COCC[C@H]1CNC(=O)[C@H](C)c2c1[nH]c1c(Cl)c(Cl)cc(NCCO)c21 (single isomer, unassigned) [Example 171] | 6.32 | 8.11
CC[C@H]1C(=O)NCCc2[nH]c3c(Cl)c(Cl)cc(OCC#N)c3c21 (single isomer, unassigned) [Example 36] | 5.92 | 5.40
C[C@@H]1C(=O)NCCc2[nH]c3c(Cl)c(Cl)cc(OCc4cocn4)c3c21 (single isomer, unassigned) [Example 179, (S)-7,8-Dichloro-1-methyl-10-(oxazol-4-ylmethoxy)-3,4,5,6-tetrahydroazepino[4,5-b]indol-2(1H)-one or (R)-7,8-dichloro-1-methyl-10-(oxazol-4-ylmethoxy)-3,4,5,6-tetrahydroazepino[4,5-b]indol-2(1H)-one] | < 5.00 | 5.67
Cn1c2c(c3c(CC#N)cc(Cl)c(Cl)c31)CC(=O)NC[C@H]2CC(C)(C)O (single isomer, unassigned) [Example 130] | 6.69 | 7.91
COCCOc1cc(Cl)c(Cl)c2[nH]c3c(c12)C(C)C(=O)NCC3 (stereo not shown) [Example 79, 7,8-Dichloro-10-(2-methoxyethoxy)-1-methyl-3,4,5,6-tetrahydroazepino[4,5-b]indol-2(1H)-one] | 6.23 | 7.85
C[C@H]1C(=O)NCCc2[nH]c3c(Cl)c(Cl)cc(NCCCO)c3c21 (single isomer, unassigned) [Example 54] | 5.25 | 5.37
N#CCOc1cc(Cl)c(Cl)c2c1c1c3n2CCC3CNC(=O)C1 (stereo not shown) [Example 115, 2-((8,9-Dichloro-2-oxo-2,3,4,4a, 5,6-hexahydro-1H-azepino[3,4,5-gh]benzo[b]pyrrolizin-11-yl)oxy)acetonitrile] | 5.71 | 7.65
